{
  "source": "patent US7491409B1",
  "about": "“Encapsulation of bioactive complexes in liposomes” (Transave, Inc., priority 1999, dated 2009)",
  "system": "pZeoLacZ plasmid DNA",
  "method": "Each dialysis device was rotated on a 12 inch motorized wheel overnight (approximately 20 hours). The DNA-containing chamber was then withdrawn with repeated pipetting to mix the sample, and it was placed in a 250 μl volume cuvette. The absorbance at 400 nm was used to monitor turbidity against the buffer background.",
  "data": [
    {"smiles": "NCCCNCCCCNCCCN", "note": "[spermine]", "values": [
      {"measurement": "total spermine concentration sufficient to condense the DNA", "setting": "in the presence of the amount of N-C12-DOPE used", "value": 0.85, "unit": "mM"},
      {"measurement": "spermine concentration sufficient to condense the plasmid DNA", "setting": "initial 250 μl emulsion, without N-C12-DOPE", "value": "approximately 0.6 mM"}
    ]}
  ]
}
